Key:
[1] = target: T1, B-RAFV600E (Homo sapiens, UniProt P15056, V600E); experiment: B-RAFV600E radiometric assay; assay type: biochemical; conditions: read-out: Kinase assay B-Raf
T1 construct: purchased Millipore, USA 14-557
Outline: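 B-RAFV600E was preincubated 45 min at rt with compound in 1% DMSO. MEK-K97M (0.5 μg), 5 μM final cold ATP and [γ-32P]ATP were then added for 2 h at rt. Phosphorylated MEK was captured on P81 paper and scintillation-counted; IC50 came from a sigmoidal dose-response fit.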

[2] = target: T2, PI3Kα (Homo sapiens, UniProt P42336); experiment: PI3 Kinase alpha TR-FRET assay; assay type: biochemical
T2 construct: made in house; host or cells: SF9 cells
T2 sequence (P42336 whole entry, species assumed): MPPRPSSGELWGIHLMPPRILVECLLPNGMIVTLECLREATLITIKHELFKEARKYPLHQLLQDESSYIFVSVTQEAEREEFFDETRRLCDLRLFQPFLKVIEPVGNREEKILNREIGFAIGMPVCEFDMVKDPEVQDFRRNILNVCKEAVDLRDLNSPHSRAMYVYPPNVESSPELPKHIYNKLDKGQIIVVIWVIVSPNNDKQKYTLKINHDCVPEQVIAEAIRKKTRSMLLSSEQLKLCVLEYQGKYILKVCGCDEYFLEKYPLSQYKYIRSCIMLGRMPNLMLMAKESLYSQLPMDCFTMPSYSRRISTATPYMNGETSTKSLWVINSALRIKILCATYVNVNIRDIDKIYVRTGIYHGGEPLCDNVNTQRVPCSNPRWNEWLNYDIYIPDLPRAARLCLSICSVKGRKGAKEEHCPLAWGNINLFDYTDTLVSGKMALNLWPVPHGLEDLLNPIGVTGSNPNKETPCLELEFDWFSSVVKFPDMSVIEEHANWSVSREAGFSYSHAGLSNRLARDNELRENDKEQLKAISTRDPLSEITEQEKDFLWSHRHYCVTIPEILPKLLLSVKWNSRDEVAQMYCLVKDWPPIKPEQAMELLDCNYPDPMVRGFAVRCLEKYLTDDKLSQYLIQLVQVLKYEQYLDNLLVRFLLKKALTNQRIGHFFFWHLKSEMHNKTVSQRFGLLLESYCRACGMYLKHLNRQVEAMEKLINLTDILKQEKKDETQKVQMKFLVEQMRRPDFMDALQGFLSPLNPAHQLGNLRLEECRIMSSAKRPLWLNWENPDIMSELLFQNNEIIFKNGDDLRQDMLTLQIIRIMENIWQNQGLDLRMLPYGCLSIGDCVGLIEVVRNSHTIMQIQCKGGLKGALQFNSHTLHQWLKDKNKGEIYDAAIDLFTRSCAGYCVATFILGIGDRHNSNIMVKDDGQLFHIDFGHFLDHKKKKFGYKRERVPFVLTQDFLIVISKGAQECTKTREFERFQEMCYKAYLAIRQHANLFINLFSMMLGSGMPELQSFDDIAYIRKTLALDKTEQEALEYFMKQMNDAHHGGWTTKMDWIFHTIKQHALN
T2 sequence (P27986 whole entry partner, species assumed): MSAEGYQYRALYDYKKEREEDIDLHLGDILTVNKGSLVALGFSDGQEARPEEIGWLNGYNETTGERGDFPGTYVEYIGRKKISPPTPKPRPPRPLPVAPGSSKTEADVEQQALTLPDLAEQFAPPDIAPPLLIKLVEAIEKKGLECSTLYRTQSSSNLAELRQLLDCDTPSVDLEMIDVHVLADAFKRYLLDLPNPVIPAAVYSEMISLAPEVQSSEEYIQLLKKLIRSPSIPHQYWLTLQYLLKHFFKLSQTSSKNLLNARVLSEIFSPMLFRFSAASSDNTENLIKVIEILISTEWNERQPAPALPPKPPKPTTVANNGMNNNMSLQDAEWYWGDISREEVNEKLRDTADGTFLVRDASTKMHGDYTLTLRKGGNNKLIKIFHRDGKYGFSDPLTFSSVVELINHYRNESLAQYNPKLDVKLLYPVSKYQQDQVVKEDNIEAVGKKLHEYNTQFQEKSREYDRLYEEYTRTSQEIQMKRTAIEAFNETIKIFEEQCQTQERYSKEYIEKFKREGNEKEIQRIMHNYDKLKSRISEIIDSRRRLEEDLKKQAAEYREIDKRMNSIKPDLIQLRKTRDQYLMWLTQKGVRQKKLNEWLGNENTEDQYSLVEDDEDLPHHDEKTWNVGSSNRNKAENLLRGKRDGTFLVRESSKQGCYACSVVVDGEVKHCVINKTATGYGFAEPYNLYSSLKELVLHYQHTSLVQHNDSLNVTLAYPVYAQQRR
Procedure: Compound inhibition for PI3Kα was determined in a homogeneous TR-FRET assay using a PI3Kα assay kit (Millipore, US, Catalog #33-016). The PI3 kinase catalyzes phosphorylation of […] (PIP2) to phosphatidylinositol 3,4,5-trisphosphate (PIP3) in the presence of ATP and Mg^2+. The PIP3 product is detected by displacement of biotin-PIP3 from an energy transfer complex consisting of Europium labeled anti-GST monoclonal antibody, a GST-tagged pleckstrin homology (PH) domain, biotinylated PIP3 and Streptavidin-Allophycocyanin (APC). Excitation of Europium in the complex results in an energy transfer to the APC and a fluorescence emission at 665 nm.
Compounds tested were dissolved in DMSO and directly distributed into 384-well plates at a volume of 0.5 μL. P110/P85a/PIP2 mixture (14.5 μL) was added to compound wells and incubated for 30 min at rt […]. P110/P85a was expressed in SF9 cells and purified in-house. 5 ng P110/P85a was used in the assay. The kinase reaction was started by the addition of ATP. The assay concentrations of both PIP2 and ATP were 40 μM. The reaction mixture was incubated for 30 min and was terminated by the addition of stop mix and detection mix. Fluorescence was measured at 615 and 665 nm upon excitation at 340 nm in a Victor V5 fluorometer (Perkin Elmer, US). The fluorescence emission ratio at 665 to 615 nm, proportional to the kinase activity, was plotted against the compound concentration to generate dose-response curves and IC50 values were determined.

[3] = test system: pERK in A375 cells; experiment: In Cell Western (ICW) assay, pERK in A375 cells; assay type: cell-based; conditions: Homo sapiens, A-375, 3 h treatment
Outline: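 After a 3 h compound treatment at 37 °C, fixed RKO or A375 cells were probed for phospho-ERK1/2 (T202/Y204), phospho-S6RP or phospho-AKT T308 and detected with a Eu-tagged anti-rabbit antibody (ex 340/em 615 nm), with Hoechst signal as the cell-number correction. Inhibition was referenced to DMSO, and IC50 values came from sigmoidal dose-response curves.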

[4] = test system: A375 cells; experiment: XTT assay for cell viability, A375 cells; assay type: cell-based; conditions: Homo sapiens, A-375, 72 h
Outline: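 GI50 derived by sigmoidal dose-response fitting of proliferation normalised to DMSO control (100%). Readout: A450 after 2-3 h with XTT (1 mg/ml)/PMS (25 μM), following 72 h compound treatment at 37° C., 5% CO2 of cells plated at 1000-2000 per well the previous day.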

[5] = test system: RKO cells; experiment: XTT assay for cell viability, RKO cells; assay type: cell-based; conditions: Homo sapiens, 72 h
Procedure: Cell lines (A375 ATCC No. CRL-1619, A2058 ATCC No. CRL-11147 and RKO ATCC No. CRL-2577, American Type Culture Collection (ATCC), Manassas Va.) once attaining ˜80% confluency were trypsinized, centrifuged and resuspended in fresh media. Cells (1000-2000/per well) were seeded in 96-well plate and incubated over-night at 37° C. in a 5% CO2 incubator. Compound dilutions were prepared in 100% DMSO followed by dilutions in the respective media. The cells were treated with NCEs for 72 h at 37° C. in 5% CO2 incubator. After 72 h, freshly prepared XTT (1 mg/ml)/PMS (25 μM) solution was added, incubated for 2 to 3 h at 37° C. and the absorbance was measured at 450 nm using an ELISA plate reader. Keeping DMSO control as 100%, the effect of the compound to inhibit the cell proliferation was calculated and the GI50 values were determined using sigmoidal dose response curve fit in GraphPad Prism® v5 software.

[6] = target: T3, mTOR kinase (Homo sapiens, UniProt P42345); experiment: mTOR kinase TR-FRET assay; assay type: biochemical
T3 construct: purchased Millipore, US
T3 sequence (P42345 1362-2549 limits assumed): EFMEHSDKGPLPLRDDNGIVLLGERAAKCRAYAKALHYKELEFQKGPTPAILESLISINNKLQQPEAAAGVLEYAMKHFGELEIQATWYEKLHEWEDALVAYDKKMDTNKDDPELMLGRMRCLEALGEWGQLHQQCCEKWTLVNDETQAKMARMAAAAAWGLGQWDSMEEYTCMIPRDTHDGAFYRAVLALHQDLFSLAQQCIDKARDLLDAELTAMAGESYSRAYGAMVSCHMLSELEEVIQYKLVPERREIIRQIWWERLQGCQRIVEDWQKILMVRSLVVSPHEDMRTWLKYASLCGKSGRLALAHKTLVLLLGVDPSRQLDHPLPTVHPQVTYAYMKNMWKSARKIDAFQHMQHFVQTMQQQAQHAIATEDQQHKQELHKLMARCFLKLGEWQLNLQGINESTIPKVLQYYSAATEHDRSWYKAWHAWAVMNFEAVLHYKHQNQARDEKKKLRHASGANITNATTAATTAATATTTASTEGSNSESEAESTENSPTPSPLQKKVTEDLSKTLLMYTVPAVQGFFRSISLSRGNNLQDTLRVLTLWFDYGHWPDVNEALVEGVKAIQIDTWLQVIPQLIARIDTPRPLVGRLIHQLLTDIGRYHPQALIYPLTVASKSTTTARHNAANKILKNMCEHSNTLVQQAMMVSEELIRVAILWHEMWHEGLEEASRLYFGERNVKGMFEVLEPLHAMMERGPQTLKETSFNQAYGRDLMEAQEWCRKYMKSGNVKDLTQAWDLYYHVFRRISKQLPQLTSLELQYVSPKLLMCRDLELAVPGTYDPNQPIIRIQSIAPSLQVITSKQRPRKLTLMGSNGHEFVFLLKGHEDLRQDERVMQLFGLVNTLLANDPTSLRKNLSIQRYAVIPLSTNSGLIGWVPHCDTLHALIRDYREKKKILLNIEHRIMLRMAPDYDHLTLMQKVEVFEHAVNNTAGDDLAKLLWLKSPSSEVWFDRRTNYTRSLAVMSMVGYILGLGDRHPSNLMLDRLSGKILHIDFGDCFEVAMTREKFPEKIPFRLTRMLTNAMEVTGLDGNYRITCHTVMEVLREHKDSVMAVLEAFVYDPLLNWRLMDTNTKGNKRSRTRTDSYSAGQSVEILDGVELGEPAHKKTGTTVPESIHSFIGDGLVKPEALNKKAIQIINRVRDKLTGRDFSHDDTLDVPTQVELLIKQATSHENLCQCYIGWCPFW
Outline: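 TR-FRET with ULight-p70 S6K (Thr 389) peptide (50 nM) and 20 μM ATP in 50 mM HEPES pH 7.5, 1 mM EGTA, 3 mM MnCl2; compound pre-incubated with enzyme before substrate addition, reaction at rt, EDTA-stopped. Eu anti-phospho antibody read 665/615 nm; IC50 from sigmoidal dose-response fit.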

T1 sequence (P15056 416-766 V600E limits assumed): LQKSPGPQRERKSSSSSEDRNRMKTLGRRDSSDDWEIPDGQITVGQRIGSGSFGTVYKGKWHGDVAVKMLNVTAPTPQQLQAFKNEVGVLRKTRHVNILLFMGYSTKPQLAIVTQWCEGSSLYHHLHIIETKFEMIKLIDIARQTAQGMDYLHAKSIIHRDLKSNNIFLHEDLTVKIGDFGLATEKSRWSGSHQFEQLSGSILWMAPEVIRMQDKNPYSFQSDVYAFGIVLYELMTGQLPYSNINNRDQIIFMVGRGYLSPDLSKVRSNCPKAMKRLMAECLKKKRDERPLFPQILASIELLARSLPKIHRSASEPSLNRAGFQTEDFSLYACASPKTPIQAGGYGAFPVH

Row | SMILES | IC50 [1] [µM] | IC50 [2] [µM] | IC50 [3] [µM] | IC50 [4] [µM] | IC50 [5] [µM] | IC50 [6] [µM]
1 | CCCS(=O)(=O)Nc1cccc(-c2cc(C)c3nc(-c4ccc(N)nc4)nc(N4CCOCC4)c3c2)c1F [Example 8, N-(3-(2-(6-aminopyridin-3-yl)-8-methyl-4-morpholinoquinazolin-6-yl)-2-fluorophenyl)propane-1-sulfonamide] | 0.1 to 1 | 0.1 to 1 | 0.1 to 1 | 0.1 to 1 | 0.1 to 1 | –
2 | COc1cc(-c2cccc(NS(=O)(=O)CCCF)c2F)cc2c(N3CCOCC3)nc(-c3cnc(N)cc3C(F)(F)F)nc12 [Example 36, N-(3-(2-(6-amino-4-(trifluoromethyl)pyridin-3-yl)-8-methoxy-4-morpholinoquinazolin-6-yl)-2-fluorophenyl)-3-fluoropropane-1-sulfonamide] | 0.001 to 0.1 | 0.1 to 1 | 0.001 to 0.1 | 0.1 to 1 | 1 to 10 | –
3 | COc1cc(-c2cccc(NS(=O)(=O)CCCF)c2F)cc2c(N3CCOCC3)nc(-c3cccc4[nH]ncc34)nc12 [Example 37, N-(3-(2-(1H-indazol-4-yl)-8-methoxy-4-morpholinoquinazolin-6-yl)-2-fluorophenyl)-3-fluoropropane-1-sulfonamide] | 0.001 to 0.1 | 0.1 to 1 | 0.001 to 0.1 | 0.1 to 1 | 1 to 10 | –
4 | CNc1ccc(-c2nc(N3CCOCC3)c3cc(-c4cccc(NS(=O)(=O)CCCF)c4F)cc(OC)c3n2)cn1 [Example 50, 3-fluoro-N-(2-fluoro-3-(8-methoxy-2-(6-(methylamino)pyridin-3-yl)-4-morpholinoquinazolin-6-yl)phenyl)propane-1-sulfonamide] | 0.001 to 0.1 | – | 0.001 to 0.1 | 0.001 to 0.1 | 0.1 to 1 | 0.001 to 0.1
5 | CNc1ncc(-c2nc(N3CCOCC3)c3cc(-c4cccc(NS(=O)(=O)CCCF)c4F)cc(OC)c3n2)cn1 [Example 51, 3-fluoro-N-(2-fluoro-3-(8-methoxy-2-(2-(methylamino)pyrimidin-5-yl)-4-morphoIinoquinazolin-6-yl)phenyl)propane-1-sulfonamide] | 0.001 to 0.1 | – | 0.001 to 0.1 | 0.001 to 0.1 | 0.1 to 1 | 0.001 to 0.1
6 | Nc1ccc(-c2nc(N3CCOCC3)c3cc(-c4cccc(NS(=O)(=O)CCCF)c4F)cc(OC4CCCC4)c3n2)cn1 [Example 53, N-(3-(2-(6-aminopyridin-3-yl)-8-(cyclopentyloxy)-4-morpholinoquinazolin-6-yl)-2-fluorophenyl)-3-fluoropropane-1-sulfonamide] | 0.001 to 0.1 | – | 0.001 to 0.1 | 0.001 to 0.1 | 0.1 to 1 | 0.001 to 0.1
7 | C[C@@H]1COCCN1c1nc(-c2ccc(N)nc2)nc2c(OC3CCCC3)cc(-c3cccc(NS(=O)(=O)CCCF)c3F)cc12 [Example 62, (R)-N-(3-(2-(6-aminopyridin-3-yl)-8-(cyclopentyloxy)-4-(3-methylmorpholino)quinazolin-6-yl)-2-fluorophenyl)-3-fluoropropane-1-sulfonamide] | 0.001 to 0.1 | – | 0.001 to 0.1 | 0.001 to 0.1 | 0.1 to 1 | 0.001 to 0.1
8 | COc1cc(-c2c(F)ccc(NS(=O)(=O)CCCF)c2F)cc2c(N3CCOCC3)nc(-c3cccc4[nH]ncc34)nc12 [Example 81, N-(3-(2-(1H-indazol-4-yl)-8-methoxy-4-morpholinoquinazolin-6-yl)-2,4-difluorophenyl)-3-fluoropropane-1-sulfonamide] | 0.001 to 0.1 | 0.1 to 1 | 0.001 to 0.1 | 0.1 to 1 | – | –
9 | O=S(=O)(CCCF)Nc1cccc(-c2ccc3nc(-c4cnc(NCCCO)nc4)nc(N4CCOCC4)c3n2)c1F [Example 110, 3-fluoro-N-(2-fluoro-3-(2-(2-((3-hydroxypropyl)amino)pyrimidin-5-yl)-4-morpholinopyrido[3,2-d]pyrimidin-6-yl)phenyl)propane-1-sulfonamide] | 0.001 to 0.1 | 0.1 to 1 | 0.001 to 0.1 | 1 to 10 | – | –
10 | CC(C)Nc1ccc(-c2nc(N3CCOCC3)c3nc(-c4cccc(NS(=O)(=O)CCCF)c4F)ccc3n2)cn1 [Example 114, 3-fluoro-N-(2-fluoro-3-(2-(6-(isopropylamino)pyridin-3-yl)-4-morpholinopyrido[3,2-d]pyrimidin-6-yl)phenyl)propane-1-sulfonamide] | 0.001 to 0.1 | – | 0.001 to 0.1 | 0.1 to 1 | 0.1 to 1 | 0.1 to 1
11 | Cc1cc(-c2cccc(NS(=O)(=O)CCCF)c2F)cc2c(N3CCOCC3)nc(-c3ccc(N)nc3)nc12 [Example 117, N-(3-(2-(6-aminopyridin-3-yl)-8-methyl-4-morpholinoquinazolin-6-yl)-2-fluorophenyl)-3-fluoropropane-1-sulfonamide] | 0.001 to 0.1 | – | 0.001 to 0.1 | 0.1 to 1 | 1 to 10 | 0.001 to 0.1
12 | Cc1cc(-c2cccc(NS(=O)(=O)CCCF)c2F)cc2c(N3CCOCC3)nc(-c3cccc4[nH]ncc34)nc12 [Example 118, N-(3-(2-(1H-indazol-4-yl)-8-methyl-4-morpholinoquinazolin-6-yl)-2-fluorophenyl)-3-fluoropropane-1-sulfonamide] | 0.001 to 0.1 | – | – | 0.1 to 1 | 1 to 10 | 0.1 to 1
